Bounds are passed on as bounds.

Data set [1] in a line: Drug solubility in ternary excipient systems (Example 2). In kind it is physicochemical. Conditions: 10% salt, 20% free base by weight. From the text: Solvents evaluated included Labrafil M 1944 CS™, Imwitor 742™ oleic acid, Capmul PG-8™, Capmul PG-12™, Lauroglycol 90™ (propylene glycol monolaurate, available from Gattefosse) and Phosal 53 MCT™. Surfactants evaluated included Tween 80™, Cremophor RH40™, Gelucire 44/14™ (polyoxyethylene glyceryl laurate, available from Gattefosse) and Labrasol™.

Data set [2] in a line: Sulfoxide formation, free base vs bis-HCl salt in lipid solution (Example 3). It counts as physicochemical. Conditions: lipid solutions (PE-91, LOT-343) aged at 40°C for up to 3 weeks. As for the experimental part: The solvent system in solution A is Phosal 53 MCT™/ethanol, 9:1 v/v; and in solution B is Labrafil M 1944 CS™/oleic acid/polysorbate 80, 30%/40%/30% by weight. (Labrafil M 1944 CS™ of Gattefossé contains polyoxyethylene glyceryl monooleate.) The three-week study was conducted at 40° C. without nitrogen purging of headspace. […] No antioxidant was included, nor was headspace nitrogen purging performed.

Data set [3] in a line: Antioxidant testing, two-week stress test (Example 6). It counts as physicochemical. As to conditions: for inhibition of oxidative degradation: ABT-263 free base 100 mg/g in LIT-433 vehicle system, at the concentrations tested.
A short description of data set [4]: BHA as antioxidant in ternary lipid systems (Example 7). In kind it is physicochemical. As for the experimental part: A full report of this study is found in Example 7 herein.
Testing was done in stress conditions at 40° C. without nitrogen purging.

Data set [5] can be described thus: Sulfoxide formation in various lipid solutions, two-week stress test (Example 4). It counts as physicochemical. Conditions: in Labrafil M 1944 CS and Plurol Oleique CC497; two-week stress test 40°C.
The format of data set [6] is physicochemical. An excerpt:
Due to poor lipid solubility of NaMTBS, an alternative way of introducing it to the lipid solution is by adding a concentrated aqueous stock solution of NaMTBS to the lipid solution.

Data set [7] is described as follows: Storage stability of prototype capsules with and without NaMTBS (Example 12). In kind it is physicochemical. As to conditions: prototype ABT-263 capsules, especially at 40° C. and 75% RH. An excerpt:
The only difference between the two batches is presence or absence of antioxidant (sodium metabisulfite). The liquids having the composition shown in Table 16 were encapsulated in size 0 hard gelatin capsules and the capsules placed in blister packaging for a chemical stability study. Water content shown in Table 17 is as determined by analysis, and is not directly related to amount of water added with NaMTBS and edetate calcium disodium as in Table 16.

Where [8] appears, read: C8LL (Capmul PG-8/Labrafil M 1944 CS/Labrasol) 40:40:20.
Setting [9] is: C12LT (Capmul PG-12/Labrafil M 1944 CS/Tween 80) 30:40:30.
Where [10] appears, read: C12LT (Capmul PG-12/Labrafil M 1944 CS/Tween 80) 35:40:25.
Where [11] appears, read: C12LT (Capmul PG-12/Labrafil M 1944 CS/Tween 80) 40:30:30.
[12] abbreviates: C12LT (Capmul PG-12/Labrafil M 1944 CS/Tween 80) 45:30:25.
The mark [13] stands for this setting: LLC (Lauroglycol 90/Labrafil M 1944 CS/Cremophor RH40) 45:30:25.
Where [14] appears, read: LLL (Lauroglycol 90/Labrafil M 1944 CS/Labrasol) 40:40:20.
[15] abbreviates: LLL (Lauroglycol 90/Labrafil M 1944 CS/Labrasol) 50:30:20.
[16] abbreviates: LOC (Labrafil M 1944 CS/oleic acid/Cremophor RH40) 30:60:10.
[17] abbreviates: LOC (Labrafil M 1944 CS/oleic acid/Cremophor RH40) 40:50:10.
Where [18] appears, read: LOT (Labrafil M 1944 CS/oleic acid/Tween 80) 30:40:30.
The mark [19] stands for this setting: LOT (Labrafil M 1944 CS/oleic acid/Tween 80) 30:45:25.
Setting [20] is: LOT (Labrafil M 1944 CS/oleic acid/Tween 80) 40:30:30.
Setting [21] is: LOT (Labrafil M 1944 CS/oleic acid/Tween 80) 40:35:25.
The mark [22] stands for this setting: OLL (oleic acid/Labrafil M 1944 CS/Labrasol) 40:40:20.
Where [23] appears, read: OLL (oleic acid/Labrafil M 1944 CS/Labrasol) 50:30:20.
Where [24] appears, read: OLL (oleic acid/Labrafil M 1944 CS/Labrasol) 50:40:10.
Setting [25] is: OLL (oleic acid/Labrafil M 1944 CS/Labrasol) 60:30:10.

With `CC1(C)CCC(c2ccc(Cl)cc2)=C(CN2CCN(c3ccc(C(=O)NS(=O)(=O)c4ccc(N[C@H](CCN5CCOCC5)CSc5ccccc5)c(S(=O)(=O)C(F)(F)F)c4)cc3)CC2)C1.Cl.Cl` [ABT-263 bis-HCl salt], the ABT-263 solubility result in data set [1] (setting [8]), in data set [1] (setting [9]), in data set [1] (setting [10]), in data set [1] (setting [11]), in data set [1] (setting [12]) and in data set [1] (ILC (Imwitor 742/Labrafil M 1944 CS/Cremophor RH40) 40:40:20) was “✓” throughout. The ABT-263 solubility entry in data set [1] (ILC (Imwitor 742/Labrafil M 1944 CS/Cremophor RH40) 50:30:20), in data set [1] (ILC (Imwitor 742/Labrafil M 1944 CS/Cremophor RH40) 50:40:10), in data set [1] (ILC (Imwitor 742/Labrafil M 1944 CS/Cremophor RH40) 60:30:10), in data set [1] (ILL (Imwitor 742/Labrafil M 1944 CS/Labrasol) 40:40:20), in data set [1] (ILL (Imwitor 742/Labrafil M 1944 CS/Labrasol) 50:30:20) and in data set [1] (ILL (Imwitor 742/Labrafil M 1944 CS/Labrasol) 50:40:10) was “✓” each time. The ABT-263 solubility entry in data set [1] (ILL (Imwitor 742/Labrafil M 1944 CS/Labrasol) 60:30:10), in data set [1] (LIT (Labrafil M 1944 CS/Imwitor 742/Tween 80) 30:40:30), in data set [1] (LIT (Labrafil M 1944 CS/Imwitor 742/Tween 80) 30:45:25), in data set [1] (LIT (Labrafil M 1944 CS/Imwitor 742/Tween 80) 40:30:30), in data set [1] (LIT (Labrafil M 1944 CS/Imwitor 742/Tween 80) 40:35:25) and in data set [1] (setting [13]) was “✓” each time. Further, the ABT-263 solubility result in data set [1] (setting [14]), in data set [1] (setting [15]), in data set [1] (LLL (Lauroglycol 90/Labrafil M 1944 CS/Labrasol) 50:40:10), in data set [1] (LLL (Lauroglycol 90/Labrafil M 1944 CS/Labrasol) 60:30:10), in data set [1] (setting [16]) and in data set [1] (setting [17]) was “✓” each time. For the same molecule, the ABT-263 solubility result in data set [1] (setting [18]), in data set [1] (setting [19]), in data set [1] (setting [20]), in data set [1] (setting [21]), in data set [1] (setting [22]) and in data set [1] (setting [23]) was “✓” in each case. The ABT-263 solubility result in data set [1] (setting [24]) and in data set [1] (setting [25]) was “✓” throughout. Further, the “color change upon aging” value in data set [2] is recorded as “pronounced color darkening”.
Take `CCCCCCCCCCCCCCCC(=O)OC[C@H](O)[C@H]1OC(=O)C(O)=C1O` [ascorbyl palmitate]: the “inhibition of oxidative degradation” value in data set [3] is given as “inhibited oxidative degradation to some extent”.
As to α-tocopherols, in data set [3], the “inhibition of oxidative degradation” value is “ineffective”.
Regarding `COc1ccc(O)c(C(C)(C)C)c1` [BHA, butylated hydroxyanisole], in data set [3], the “inhibition of oxidative degradation” value is on record as “inhibited oxidative degradation to some extent”. Further, the “effect on sulfoxide formation” value in data set [4] (0.2% by weight BHA in 15% by weight ABT-263 free base in IPT-253, 4-week study at 40°C without nitrogen purging) was “no effect”. Further, the “inhibition of sulfoxide formation” value in data set [4] (0.2% w/w BHA, ABT-263 150 mg/g in IPT-253 and LIT-433, 40°C without nitrogen purging) is “did not provide any inhibition”.
Regarding `OCC(O)CS` (centres unmarked) [Thioglycerol, thioglycerol], in data set [3] (ABT-263 free base 100 mg/g, both vehicle systems (Lipoid S75 MCT, LIT-433)), the “inhibition of drug oxidation” value is “effective inhibition”.
Regarding `Cc1cc(C(C)(C)C)c(O)c(C(C)(C)C)c1` [BHT, butylated hydroxytoluene], in data set [3], the “inhibition of oxidative degradation” value is recorded as “inhibited oxidative degradation to some extent”.
For `CC1(C)CCC(c2ccc(Cl)cc2)=C(CN2CCN(c3ccc(C(=O)NS(=O)(=O)c4ccc(N[C@H](CCN5CCOCC5)CSc5ccccc5)c(S(=O)(=O)C(F)(F)F)c4)cc3)CC2)C1` [ABT-263], the ABT-263 solubility entry in data set [1] (setting [8]), in data set [1] (setting [9]), in data set [1] (setting [10]), in data set [1] (setting [11]), in data set [1] (setting [12]) and in data set [1] (setting [13]) was “✓” throughout. The ABT-263 solubility entry in data set [1] (setting [14]), in data set [1] (setting [15]), in data set [1] (setting [16]), in data set [1] (setting [17]), in data set [1] (setting [18]) and in data set [1] (setting [19]) was “✓” each time. In addition, the ABT-263 solubility result in data set [1] (setting [20]), in data set [1] (setting [21]), in data set [1] (setting [22]), in data set [1] (setting [23]), in data set [1] (setting [24]) and in data set [1] (setting [25]) was “✓” each time. The degradation result in data set [5] is given as “significant degradation”.
As for `O=S([O-])([O-])=S.[Na+].[Na+]` [sodium thiosulfate], in data set [3], the “inhibition of oxidative degradation” value is on record as “inhibited oxidative degradation to some extent”.
Consider `O=S([O-])S(=O)(=O)[O-].[Na+].[Na+]` [sodium metabisulfite], for which the “inhibition of oxidative degradation” value in data set [3] was “inhibited oxidative degradation to some extent”. Further, the “final NaMTBS concentration giving a clear solution” value in data set [6] is not above 9.67 mg/mL. Also, the “final NaMTBS concentration at which the lipid solution turned turbid” value in data set [6] (50 mg/ml free base solution in Phosal 53 MCT/ethanol 9:1 v/v, 15% w/v stock solution) is ≥ 150 % relative molar concentration. Further, the “solubility of neat NaMTBS (solids remained)” value in data set [6] (5 days) is recorded as less than 0.05 % w/w. In addition, the “inhibition of formation of total sulfoxides” value in data set [7] is listed as “significantly inhibited”.

The values above are taken from patent publication US8728516B2, “Stabilized lipid formulation of apoptosis promoter” (AbbVie Inc., priority 2009, dated 2014).
